How the values were obtained:
Format in all cases: in vivo
[1] = test system: Venturia inaequalis ascospores; assay: Ascospore projection from overwintered leaves (Kollar waterbath protocol); conditions: M2: one application at 50 kg/ha (30% fallen leaves); untreated control 139
Description: The objective of this trial was to evaluate the efficacy of the soluble yeast cell wall derivatives on their ability to reduce the apple scab inoculum (i.e. ascospores) on overwintering leaves.
The trial was carried out on a “Gala” apple variety in an orchard severely affected by apple scab.
The following treatments were tested: M1: untreated control; M2: urea, one application at […]: soluble yeast cell wall derivatives (Lallemand), one application at 5 l/ha (30% fallen leaves); M4: soluble yeast cell wall derivatives, one application at 10 l/ha (30% fallen leaves); M5: soluble yeast cell wall derivatives, two applications at 10 l/ha (first application at beginning of leaf drop and second application at 30% fallen leaves). Each treatment had three replicates.
One batch of 100 g of leaves per replication was placed in plastic mesh bags with fine mesh on the outdoor ground, in orchard conditions. Treatments were applied in November to the trees using a backpack sprayer (SOLO) at a volume of 1000 L/ha. […]
The ascospore projection of Venturia inaequalis was evaluated in March. […]
All meteorological records came from the SudAgroMétéo station on the SudExpé Marsillargues site. […] The results were analyzed using a one-way ANOVA and multiple comparisons of the mean were analysed using a Tukey post-hoc test at 5% threshold. […]

[2] = test system: apple tree leaves on the orchard floor; assay: Leaf area degradation by leaf area scanner, first trial; conditions: for Average leaf area reduction: leaf area scanning method
Description: (§1) At 95% leaf drop, two populations of autumn leaves were collected: 1) yellow leaves (yellow leaves ready to fall; harvested from the treatment trees and placed into wire grids; and 2) brown leaves (brown leaves which have fallen but not yet showing visible degradation collected from the orchard floor and placed into wire grids).
(§2) The following treatments were tested: 1) untreated control (no application); 2) water control (1000 L water per hectare); 3) urea ([…] per 1000 L per hectare); and 4) soluble yeast cell wall derivatives (Lallemand) (5 kg dry matter/ha; 10 L/ha in 1000 L water per hectare).
(§3) Treatments were applied to the soil using a non-mechanised back pack sprayer as applicator, in a one meter radius around the tree stem (grids were placed within this circumference).
(§4) Treatment application times: 1) 95% leaf drop; 2) 95% leaf drop+two weeks; and 3) 95% leaf drop+four weeks.
Leaf degradation was expressed as the reduction in leaf area (mm^2) based on readings taken with a leaf area scanner (LI-COR, LI-3050C Transparent Belt Conveyor). Samples were placed onto a transparent conveyor belt which allowed the leaf to pass through the scanning head. The accumulated leaf area was determined by passing all leaves of a grid through the scanner and subsequently an average per leaf area (mm 2).

[3] = test system: apple tree leaves on the orchard floor; assay: Visual in-field leaf degradation rating per grid, first trial
From the text: The objective of this trial was to establish the potential of soluble yeast cell wall derivatives to accelerate degradation of apple tree leaves on the orchard floor thereby reducing overwintering potential of apple scab (Venturia inaequalis).
as §1, §2, §3, §4
All evaluations were done separately on each of the two leaf populations selected at the start of the trial.
Leaf degradation according to a 0-9 scale, on a per grid estimate, reflecting the surface area which has decomposed; with “0” representing no degradation, “3” being approx. 30% degradation, “6” representing 60% degradation, and “9” complete degradation. […]

[4] = brown leaves, 4 weeks after the last application
[5] = brown leaves, 8 weeks after the last application
[6] = brown leaves, 10 weeks after the last application
[7] = yellow leaves, 6 weeks after the last application
[8] = yellow leaves, 8 weeks after the last application
[9] = yellow leaves, 10 weeks after the last application

NC(N)=O [urea]
Average concentration of apple scab ascospores discharged in the overwintered leaves [1]: 39 ascospores/μl
Leaf area reduction relative to the water control ([2]; brown leaves): (+52%)
Average leaf area reduction ([2]; brown leaves): 14.1 bc mm^2
Leaf area reduction relative to the water control ([2]; yellow leaves): (+10%)
Average leaf area reduction ([2]; yellow leaves): 15.0 abc mm^2
Average leaf degradation score in the sampling grids, degradation category (scale 0-9) [3, 4]: 1.0
percentage by which leaf degradation of a treatment exceeded the water control [3, 4]: (+43%)
Average leaf degradation score in the sampling grids, degradation category (scale 0-9) ([3]; brown leaves, 6 weeks after the last application): 2.2 ab
Average leaf degradation score in the sampling grids, degradation category (scale 0-9) [3, 5]: 3.2 ab
percentage by which leaf degradation of a treatment exceeded the water control [3, 5]: (+60%)
Average leaf degradation score in the sampling grids, degradation category (scale 0-9) [3, 6]: 4.3 ab
percentage by which leaf degradation of a treatment exceeded the water control [3, 6]: (+34%)
Average leaf degradation score in the sampling grids, degradation category (scale 0-9) ([3]; brown leaves, 12 weeks after the last application): 5.7 ab
leaf degradation reached ([3]; first trial, 12 weeks after the last application, cold weather, lack of rains): ≤ 50%
Average leaf degradation score in the sampling grids, degradation category (scale 0-9) ([3]; yellow leaves, 4 weeks after the last application): 1.3a
Average leaf degradation score in the sampling grids, degradation category (scale 0-9) [3, 7]: 2.5a
percentage by which leaf degradation of a treatment exceeded the water control [3, 7]: (+39%)
Average leaf degradation score in the sampling grids, degradation category (scale 0-9) [3, 8]: 3.2a
percentage by which leaf degradation of a treatment exceeded the water control [3, 8]: (+14%)
Average leaf degradation score in the sampling grids, degradation category (scale 0-9) [3, 9]: 3.8 a
percentage by which leaf degradation of a treatment exceeded the water control [3, 9]: (+9%)
Average leaf degradation score in the sampling grids, degradation category (scale 0-9) ([3]; yellow leaves, 12 weeks after the last application): 5.3ab
